Results as given in the NIST ThermoML archive (doi:10.1021/je0603574).
Where “and” joins values, the source holds several entries; their conditions need not be identical. Equal entries are not always repeated.

Legend:
[1] = 323.15 K; Liquid; Closed cell (Static) method
[2] = excess molar enthalpy (molar enthalpy of mixing); xn = mol fraction of the nth substance listed; conditions: 323.15 K, Liquid, Flow calorimetry

CCCCO [butan-1-ol]
Conditions	vapor or sublimation pressure [kPa]
[1]	4.61

COC [dimethyl ether]
Conditions	vapor or sublimation pressure
[1]	1143 kPa and 1142.9 kPa and 1143.2 kPa

COC [dimethyl ether] + CCCCO
[2]
Conditions	excess molar enthalpy [kcal/mol]
x1 = 0.0655	0.0435
x1 = 0.129	0.0805
x1 = 0.1904	0.114
x1 = 0.2499	0.141
x1 = 0.3076	0.161
x1 = 0.3635	0.179
x1 = 0.4178	0.191
x1 = 0.4705	0.199
x1 = 0.5216	0.203
x1 = 0.5713	0.204
x1 = 0.6196	0.199
x1 = 0.6666	0.192
x1 = 0.7122	0.182
x1 = 0.7567	0.167
x1 = 0.7999	0.15
x1 = 0.842	0.129
x1 = 0.8831	0.103
x1 = 0.923	0.0729
x1 = 0.962	0.0387

COC [dimethyl ether] + CCCO
[2]
Conditions	excess molar enthalpy [kcal/mol]
x1 = 0.0541	0.0344
x1 = 0.1078	0.0655
x1 = 0.161	0.0937
x1 = 0.2138	0.118
x1 = 0.2661	0.139
x1 = 0.3179	0.158
x1 = 0.3693	0.173
x1 = 0.4203	0.184
x1 = 0.4708	0.192
x1 = 0.521	0.197
x1 = 0.5707	0.197
x1 = 0.62	0.195
x1 = 0.6688	0.189
x1 = 0.7173	0.178
x1 = 0.7654	0.164
x1 = 0.8131	0.144
x1 = 0.8604	0.119
x1 = 0.9073	0.0865
x1 = 0.9538	0.0466

COC [dimethyl ether] + CCO
[2]
Conditions	excess molar enthalpy [kcal/mol]
x1 = 0.0428	0.0209
x1 = 0.0862	0.0423
x1 = 0.1303	0.0624
x1 = 0.175	0.0815
x1 = 0.2205	0.0994
x1 = 0.2667	0.116
x1 = 0.3137	0.131
x1 = 0.3614	0.145
x1 = 0.4098	0.156
x1 = 0.4591	0.166
x1 = 0.5092	0.171
x1 = 0.5601	0.175
x1 = 0.6118	0.177
x1 = 0.6645	0.173
x1 = 0.718	0.166
x1 = 0.7725	0.153
x1 = 0.8279	0.132
x1 = 0.8842	0.102
x1 = 0.9416	0.0583

COC [dimethyl ether] + CO
[2]
Conditions	excess molar enthalpy [kcal/mol]
x1 = 0.03	0.00583
x1 = 0.0614	0.0128
x1 = 0.0941	0.0203
x1 = 0.1282	0.0289
x1 = 0.164	0.0375
x1 = 0.2014	0.0466
x1 = 0.2406	0.0564
x1 = 0.2818	0.0664
x1 = 0.325	0.0765
x1 = 0.3704	0.0863
x1 = 0.4183	0.0949
x1 = 0.4688	0.104
x1 = 0.5222	0.112
x1 = 0.5786	0.117
x1 = 0.6384	0.12
x1 = 0.7018	0.12
x1 = 0.7693	0.113
x1 = 0.8412	0.0951
x1 = 0.9179	0.0605

CCO [ethanol]
Conditions	vapor or sublimation pressure [kPa]
[1]	29.37

CO [methanol]
Conditions	vapor or sublimation pressure [kPa]
[1]	55.3

CCCO [propan-1-ol]
Conditions	vapor or sublimation pressure [kPa]
[1]	12.32
